PubChem BioAssay AID256 (DTP/NCI, 2004)
Several values for one entry are separate records, joined by “and”; a condition that tells them apart may be missing. Equal entries are not always repeated. Inconclusive results and toxic doses are left out.

System: CD2F1 mice, L1210 leukemia ip, survival T/C
Test: NCI In Vivo Anticancer Drug Screen. Data for tumor model L1210 Leukemia (intraperitoneal) in CD2F1 (CDF1) mice
Settings: endpoint: mean survival time, higher = longer survival
Method in brief: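 Vehicle-treated tumor-bearing mice served as controls (C) for compound-treated mice (T). Reported figure is T divided by C.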

[1] = dose: 12.5 mg/kg/injection, schedule: Q01DX009 (ip), vehicle: saline with Tween-80
[2] = dose: 25.0 mg/kg/injection, schedule: Q01DX009 (ip), vehicle: saline with Tween-80
[3] = dose: 100.0 mg/kg/injection, schedule: Q01DX009 (ip), vehicle: saline with Tween-80
[4] = dose: 100.0 mg/kg/injection, schedule: Q04DX003 (ip), vehicle: saline with Tween-80
[5] = dose: 200.0 mg/kg/injection, schedule: Q04DX003 (ip), vehicle: saline with Tween-80
[6] = dose: 400.0 mg/kg/injection, schedule: Q04DX003 (ip), vehicle: saline with Tween-80

SMILES: CC(=Nc1ccccc1)C1=C(O)C(Cc2ccccc2)NC1=O (stereo not drawn)
- T/C [1]: 98 % of control and 103 % of control
- T/C (dose: 12.5 mg/kg/injection, schedule: Q04DX002 (ip), vehicle: saline with Tween-80): 100 % of control
- T/C [2]: 102 % of control and 111 % of control
- T/C (dose: 25.0 mg/kg/injection, schedule: Q04DX002 (ip), vehicle: saline with Tween-80): 103 % of control
- T/C (dose: 50.0 mg/kg/injection, schedule: Q01DX009 (ip), vehicle: saline with Tween-80): 118 % of control and 108 % of control
- T/C (dose: 50.0 mg/kg/injection, schedule: Q04DX002 (ip), vehicle: saline with Tween-80): 103 % of control
- T/C [3]: 110 % of control

SMILES: N#CCCCN1CCCCC1
- T/C (dose: 6.25 mg/kg/injection, schedule: Q01DX009 (ip), vehicle: saline with Tween-80): 103 % of control
- T/C (dose: 6.25 mg/kg/injection, schedule: Q04DX003 (ip), vehicle: saline): 89 % of control
- T/C [1]: 97 % of control
- T/C (dose: 12.5 mg/kg/injection, schedule: Q04DX003 (ip), vehicle: saline): 98 % of control
- T/C [2]: 100 % of control
- T/C (dose: 25.0 mg/kg/injection, schedule: Q04DX003 (ip), vehicle: saline): 93 % of control

SMILES: O=C1c2ccccc2C(=O)c2c(O)c3c(c(O)c21)CCC(O)C3 (stereo not drawn)
- T/C (dose: 12.5 mg/kg/injection, schedule: Q01DX009 (ip), vehicle: other): 102 % of control
- T/C (dose: 25.0 mg/kg/injection, schedule: Q01DX009 (ip), vehicle: other): 107 % of control
- T/C (dose: 50.0 mg/kg/injection, schedule: Q01DX009 (ip), vehicle: other): 96 % of control
- T/C (dose: 100.0 mg/kg/injection, schedule: Q01DX009 (ip), vehicle: other): 91 % of control
- T/C (dose: 200.0 mg/kg/injection, schedule: Q01DX009 (ip), vehicle: other): 93 % of control

SMILES: CCOC(=O)C1(C(=O)OCC)C2CC=CCC21 (stereo not drawn)
- T/C (dose: 50.0 mg/kg/injection, schedule: Q01DX009 (ip), vehicle: acetone): 100 % of control
- T/C (dose: 100.0 mg/kg/injection, schedule: Q01DX009 (ip), vehicle: acetone): 92 % of control
- T/C (dose: 200.0 mg/kg/injection, schedule: Q01DX009 (ip), vehicle: acetone): 97 % of control

SMILES: CCOC(=O)C(SC)(SC)C(=O)OCC
- T/C (dose: 100.0 mg/kg/injection, schedule: Q01DX001 (ip), vehicle: Klucel (hydroxypropylcellulose) (HPC)): 106 % of control
- T/C (dose: 200.0 mg/kg/injection, schedule: Q01DX001 (ip), vehicle: Klucel (hydroxypropylcellulose) (HPC)): 109 % of control
- T/C (dose: 400.0 mg/kg/injection, schedule: Q01DX001 (ip), vehicle: Klucel (hydroxypropylcellulose) (HPC)): 103 % of control

SMILES: COc1ccccc1NC(=O)N(CCCl)N=O
- T/C (dose: 1.5 mg/kg/injection, schedule: Q01DX009 (ip), vehicle: carboxymethylcellulose (CMC)): 115 % of control
- T/C (dose: 3.5 mg/kg/injection, schedule: Q01DX009 (ip), vehicle: carboxymethylcellulose (CMC)): 168 % of control

SMILES: Nc1nc2c(ncn2CCCCc2ccccc2)c(=O)[nH]1
- T/C (dose: 100.0 mg/kg/injection, schedule: Q04DX002 (ip), vehicle: saline with Tween-80): 94 % of control
- T/C (dose: 200.0 mg/kg/injection, schedule: Q04DX002 (ip), vehicle: saline with Tween-80): 94 % of control
- T/C (dose: 400.0 mg/kg/injection, schedule: Q04DX002 (ip), vehicle: saline with Tween-80): 94 % of control

SMILES: CC(C)[S-].CC(C)[S-].[Pt+2].c1ccc([PH+](c2ccccc2)c2ccccc2)cc1.c1ccc([PH+](c2ccccc2)c2ccccc2)cc1
- T/C (dose: 3.13 mg/kg/injection, schedule: Q04DX003 (sc), vehicle: distilled water + Tween-80): 96 % of control
- T/C (dose: 6.25 mg/kg/injection, schedule: Q04DX003 (sc), vehicle: distilled water + Tween-80): 100 % of control
- T/C (dose: 12.5 mg/kg/injection, schedule: Q04DX003 (sc), vehicle: distilled water + Tween-80): 92 % of control
- T/C (dose: 50.0 mg/kg/injection, schedule: Q04DX003 (sc), vehicle: distilled water + Tween-80): 87 % of control
- T/C (dose: 200.0 mg/kg/injection, schedule: Q04DX003 (sc), vehicle: distilled water + Tween-80): 89 % of control

SMILES: CN1C=Cc2ccccc2C1
- T/C (dose: 100.0 mg/kg/injection, schedule: Q01DX001 (ip), vehicle: saline with Tween-80): 93 % of control
- T/C [3]: 93 % of control
- T/C (dose: 200.0 mg/kg/injection, schedule: Q01DX001 (ip), vehicle: saline with Tween-80): 95 % of control
- T/C (dose: 400.0 mg/kg/injection, schedule: Q01DX001 (ip), vehicle: saline with Tween-80): 93 % of control

SMILES: O=C1c2ccccc2C(=O)c2c(Cl)cccc21
- T/C [3]: 88 % of control
- T/C [4]: 93 % of control
- T/C (dose: 200.0 mg/kg/injection, schedule: Q01DX009 (ip), vehicle: saline with Tween-80): 86 % of control
- T/C [5]: 93 % of control
- T/C (dose: 400.0 mg/kg/injection, schedule: Q01DX009 (ip), vehicle: saline with Tween-80): 90 % of control
- T/C [6]: 91 % of control

SMILES: COCCNC(=O)Nc1cccc2c1CCCC2
- T/C [4]: 106 % of control
- T/C [5]: 97 % of control
- T/C [6]: 91 % of control

SMILES: Cc1c(-c2ccc3c(c2)OCO3)no[n+]1[O-]
- T/C [4]: 91 % of control
- T/C [5]: 98 % of control
- T/C [6]: 88 % of control

SMILES: N=C(N)c1ccc(OCCCCOc2ccc(NC(=O)Nc3cc(S(=O)(=O)F)ccc3Cl)cc2)cc1
- T/C (dose: 75.0 mg/kg/injection, schedule: Q01DX001 (ip), vehicle: saline with Tween-80): 95 % of control
- T/C (dose: 150.0 mg/kg/injection, schedule: Q01DX001 (ip), vehicle: saline with Tween-80): 90 % of control
- T/C (dose: 300.0 mg/kg/injection, schedule: Q01DX001 (ip), vehicle: saline with Tween-80): 95 % of control
